Laboratory results reported in the kinase profiling compilation of Christmann-Franck et al. (2016).

Key:
Test in all cases: radiometric filter-binding kinase assay, Kinase HotSpot
Details in all cases: compound 0.5 µM; ATP 10 µM
YES1 (human) = YES1 (human) (UniProt P07947)
NEK4 (human) = NEK4 (human) (UniProt P51957)
RPS6KA1 KD1 KD2 (human) = RPS6KA1 KD1 KD2 (human) (UniProt Q15418)
BRSK2 (human) = BRSK2 (human) (UniProt Q8IWQ3)
STK17A (human) = STK17A (human) (UniProt Q9UEE5)
CSNK2A1 (human) = CSNK2A1 (human) (UniProt P68400)
AURKA (human) = AURKA (human) (UniProt O14965)
MAPK14 (human) = MAPK14 (human) (UniProt Q16539)
RPS6KA6 KD1 KD2 (human) = RPS6KA6 KD1 KD2 (human) (UniProt Q9UK32)
MKNK2 (human) = MKNK2 (human) (UniProt Q9HBH9)
TAOK1 (human) = TAOK1 (human) (UniProt Q7L7X3)
DDR2 (human) = DDR2 (human) (UniProt Q16832)
MAPKAPK2 (human) = MAPKAPK2 (human) (UniProt P49137)
RET (human) = RET (human) (UniProt P07949)
LTK (human) = LTK (human) (UniProt P29376)
PRKCH (human) = PRKCH (human) (UniProt P24723)
RPS6KA2 KD1 KD2 (human) = RPS6KA2 KD1 KD2 (human) (UniProt Q15349)
FGFR1 (human) = FGFR1 (human) (UniProt P11362)
DCLK2 (human) = DCLK2 (human) (UniProt Q8N568)
TYRO3 (human) = TYRO3 (human) (UniProt Q06418)
PHKG1 (human) = PHKG1 (human) (UniProt Q16816)
EPHB3 (human) = EPHB3 (human) (UniProt P54753)
ABL1 (human) = ABL1 (human) (UniProt P00519)
CLK3 (human) = CLK3 (human) (UniProt P49761)
STK24 (human) = STK24 (human) (UniProt Q9Y6E0)
WEE1 (human) = WEE1 (human) (UniProt P30291)
CDK3 CCNE1 (human) = CDK3 CCNE1 (human) (UniProt Q00526+P24864)
GRK4 (human) = GRK4 (human) (UniProt P32298)
MAPKAPK5 (human) = MAPKAPK5 (human) (UniProt Q8IW41)
TAOK2 (human) = TAOK2 (human) (UniProt Q9UL54)
MLTK (human) = MLTK (human) (UniProt Q9NYL2)
PRKCD (human) = PRKCD (human) (UniProt Q05655)
CDK4 CCND1 (human) = CDK4 CCND1 (human) (UniProt P24385+P11802)
RPS6KA4 KD2 (human) = RPS6KA4 KD2 (human) (UniProt O75676)
MAPK1 (human) = MAPK1 (human) (UniProt P28482)
NTRK3 (human) = NTRK3 (human) (UniProt Q16288)
ULK2 (human) = ULK2 (human) (UniProt Q8IYT8)
TXK (human) = TXK (human) (UniProt P42681)
BLK (human) = BLK (human) (UniProt P51451)
CAMK2B (human) = CAMK2B (human) (UniProt Q13554)
RPS6KB2 (human) = RPS6KB2 (human) (UniProt Q9UBS0)
IKBKB (human) = IKBKB (human) (UniProt O14920)

Chain of RPS6KB2 (human) (Q9UBS0 whole entry, looked up): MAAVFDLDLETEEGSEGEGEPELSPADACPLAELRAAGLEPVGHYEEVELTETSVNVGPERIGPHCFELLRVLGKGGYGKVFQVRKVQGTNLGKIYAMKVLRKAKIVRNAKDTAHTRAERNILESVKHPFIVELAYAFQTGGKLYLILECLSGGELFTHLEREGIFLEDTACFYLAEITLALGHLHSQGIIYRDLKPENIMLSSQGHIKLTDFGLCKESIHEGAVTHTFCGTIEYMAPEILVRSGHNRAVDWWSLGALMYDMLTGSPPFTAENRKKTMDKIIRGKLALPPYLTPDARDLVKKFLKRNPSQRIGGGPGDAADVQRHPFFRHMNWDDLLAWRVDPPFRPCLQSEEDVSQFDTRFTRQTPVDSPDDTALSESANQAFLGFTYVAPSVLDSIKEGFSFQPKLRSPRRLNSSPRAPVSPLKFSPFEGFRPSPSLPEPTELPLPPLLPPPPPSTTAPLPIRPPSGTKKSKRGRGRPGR
Chain of MKNK2 (human) (Q9HBH9 whole entry, looked up): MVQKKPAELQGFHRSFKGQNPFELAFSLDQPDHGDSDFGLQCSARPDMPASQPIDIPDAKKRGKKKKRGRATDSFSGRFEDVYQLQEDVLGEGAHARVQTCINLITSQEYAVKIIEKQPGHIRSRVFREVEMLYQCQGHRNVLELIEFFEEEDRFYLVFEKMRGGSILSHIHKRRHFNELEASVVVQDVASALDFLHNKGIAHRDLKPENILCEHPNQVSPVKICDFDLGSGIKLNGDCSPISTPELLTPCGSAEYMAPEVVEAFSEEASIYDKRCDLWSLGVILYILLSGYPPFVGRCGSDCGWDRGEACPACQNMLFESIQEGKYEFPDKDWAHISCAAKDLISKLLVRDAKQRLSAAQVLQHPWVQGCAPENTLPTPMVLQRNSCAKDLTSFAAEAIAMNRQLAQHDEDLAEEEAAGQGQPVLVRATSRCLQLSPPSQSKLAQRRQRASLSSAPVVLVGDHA
Chain of ULK2 (human) (Q8IYT8 whole entry, looked up): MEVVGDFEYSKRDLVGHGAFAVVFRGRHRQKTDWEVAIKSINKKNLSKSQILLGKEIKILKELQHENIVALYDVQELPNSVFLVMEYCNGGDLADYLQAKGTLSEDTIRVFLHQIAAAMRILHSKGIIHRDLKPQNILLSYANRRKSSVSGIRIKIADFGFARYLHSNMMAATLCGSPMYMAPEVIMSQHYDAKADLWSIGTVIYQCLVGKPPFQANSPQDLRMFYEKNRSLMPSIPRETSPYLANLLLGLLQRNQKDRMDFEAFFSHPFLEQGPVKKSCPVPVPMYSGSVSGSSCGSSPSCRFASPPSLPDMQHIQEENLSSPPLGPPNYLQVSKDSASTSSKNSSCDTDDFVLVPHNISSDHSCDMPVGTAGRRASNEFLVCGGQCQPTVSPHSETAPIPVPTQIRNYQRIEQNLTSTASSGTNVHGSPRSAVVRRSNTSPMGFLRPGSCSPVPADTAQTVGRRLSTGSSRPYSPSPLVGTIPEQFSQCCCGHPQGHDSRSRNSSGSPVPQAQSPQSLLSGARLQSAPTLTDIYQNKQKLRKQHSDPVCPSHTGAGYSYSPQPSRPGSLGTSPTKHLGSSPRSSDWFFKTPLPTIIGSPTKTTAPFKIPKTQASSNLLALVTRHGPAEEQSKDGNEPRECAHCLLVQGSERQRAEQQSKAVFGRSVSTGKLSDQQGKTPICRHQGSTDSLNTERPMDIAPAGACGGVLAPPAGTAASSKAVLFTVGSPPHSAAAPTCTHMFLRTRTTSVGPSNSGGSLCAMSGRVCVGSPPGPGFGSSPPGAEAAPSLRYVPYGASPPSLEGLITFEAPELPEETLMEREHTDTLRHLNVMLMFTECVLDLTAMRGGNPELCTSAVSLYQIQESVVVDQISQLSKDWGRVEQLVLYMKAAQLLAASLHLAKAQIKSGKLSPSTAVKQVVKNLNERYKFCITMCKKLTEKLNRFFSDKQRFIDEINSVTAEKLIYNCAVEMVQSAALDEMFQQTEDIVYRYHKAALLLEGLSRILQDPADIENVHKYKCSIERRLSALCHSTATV
Chain of MAPK1 (human) (P28482 whole entry, looked up): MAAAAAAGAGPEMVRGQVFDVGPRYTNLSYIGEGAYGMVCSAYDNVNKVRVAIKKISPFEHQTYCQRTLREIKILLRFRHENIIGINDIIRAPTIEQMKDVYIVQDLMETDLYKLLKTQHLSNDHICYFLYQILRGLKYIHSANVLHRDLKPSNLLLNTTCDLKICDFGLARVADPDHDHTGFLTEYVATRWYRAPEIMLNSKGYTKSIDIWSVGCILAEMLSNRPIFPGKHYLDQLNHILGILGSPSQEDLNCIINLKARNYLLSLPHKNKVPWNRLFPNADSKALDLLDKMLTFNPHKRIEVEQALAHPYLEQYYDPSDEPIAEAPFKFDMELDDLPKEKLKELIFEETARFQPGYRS
Chain of DCLK2 (human) (Q8N568 whole entry, looked up): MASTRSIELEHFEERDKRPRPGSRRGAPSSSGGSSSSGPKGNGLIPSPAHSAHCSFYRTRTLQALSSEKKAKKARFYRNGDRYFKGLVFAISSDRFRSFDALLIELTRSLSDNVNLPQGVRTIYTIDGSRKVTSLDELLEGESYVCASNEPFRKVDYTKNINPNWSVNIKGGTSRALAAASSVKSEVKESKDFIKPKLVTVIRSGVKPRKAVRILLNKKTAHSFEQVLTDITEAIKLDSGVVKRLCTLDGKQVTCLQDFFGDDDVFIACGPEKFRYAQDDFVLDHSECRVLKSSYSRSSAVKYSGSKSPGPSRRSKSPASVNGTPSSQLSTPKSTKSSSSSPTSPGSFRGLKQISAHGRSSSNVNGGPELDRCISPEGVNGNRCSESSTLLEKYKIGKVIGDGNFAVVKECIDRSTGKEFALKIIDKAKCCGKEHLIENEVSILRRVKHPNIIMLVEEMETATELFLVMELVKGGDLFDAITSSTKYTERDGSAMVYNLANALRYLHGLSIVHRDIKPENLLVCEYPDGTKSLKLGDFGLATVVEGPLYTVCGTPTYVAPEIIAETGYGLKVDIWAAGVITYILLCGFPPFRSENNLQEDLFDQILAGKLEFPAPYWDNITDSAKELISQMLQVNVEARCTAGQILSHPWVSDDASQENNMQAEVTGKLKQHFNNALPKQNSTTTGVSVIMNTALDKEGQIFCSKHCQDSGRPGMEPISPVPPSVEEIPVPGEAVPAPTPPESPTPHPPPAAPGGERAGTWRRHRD
Chain of DDR2 (human) (Q16832 whole entry, looked up): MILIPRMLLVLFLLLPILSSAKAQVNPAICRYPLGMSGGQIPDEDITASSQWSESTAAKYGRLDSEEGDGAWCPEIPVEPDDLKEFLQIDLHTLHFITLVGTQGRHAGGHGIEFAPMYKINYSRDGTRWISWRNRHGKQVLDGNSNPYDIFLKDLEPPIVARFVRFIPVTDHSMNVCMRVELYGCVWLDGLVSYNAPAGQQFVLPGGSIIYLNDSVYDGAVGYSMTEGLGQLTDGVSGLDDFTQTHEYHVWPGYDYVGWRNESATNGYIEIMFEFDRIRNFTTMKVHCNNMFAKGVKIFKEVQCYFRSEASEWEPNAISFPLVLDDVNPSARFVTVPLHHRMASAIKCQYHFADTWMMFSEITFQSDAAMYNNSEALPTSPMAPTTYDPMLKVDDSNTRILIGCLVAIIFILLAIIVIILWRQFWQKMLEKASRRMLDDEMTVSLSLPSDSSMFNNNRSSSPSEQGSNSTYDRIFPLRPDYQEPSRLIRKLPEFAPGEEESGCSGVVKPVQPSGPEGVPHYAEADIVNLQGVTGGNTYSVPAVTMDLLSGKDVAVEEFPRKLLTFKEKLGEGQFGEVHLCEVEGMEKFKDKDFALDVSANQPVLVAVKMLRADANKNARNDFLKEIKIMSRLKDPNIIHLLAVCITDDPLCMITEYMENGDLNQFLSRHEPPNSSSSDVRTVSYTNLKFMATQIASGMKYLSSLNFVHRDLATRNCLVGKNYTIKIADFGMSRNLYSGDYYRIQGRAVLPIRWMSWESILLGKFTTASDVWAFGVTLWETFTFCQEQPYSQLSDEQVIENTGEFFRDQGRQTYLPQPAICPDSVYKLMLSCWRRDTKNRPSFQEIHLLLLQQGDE
Chain of CDK4 CCND1 (human) (P11802 whole entry, looked up): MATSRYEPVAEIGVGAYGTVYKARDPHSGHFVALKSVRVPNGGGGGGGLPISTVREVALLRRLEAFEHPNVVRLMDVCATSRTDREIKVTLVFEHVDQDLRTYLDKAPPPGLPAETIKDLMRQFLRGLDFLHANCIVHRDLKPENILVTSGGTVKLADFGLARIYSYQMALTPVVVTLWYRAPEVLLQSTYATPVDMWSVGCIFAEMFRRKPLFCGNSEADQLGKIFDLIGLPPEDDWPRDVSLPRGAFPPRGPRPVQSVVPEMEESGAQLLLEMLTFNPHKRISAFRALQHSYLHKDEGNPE
Chain of CDK4 CCND1 (human) (P24385 whole entry, looked up): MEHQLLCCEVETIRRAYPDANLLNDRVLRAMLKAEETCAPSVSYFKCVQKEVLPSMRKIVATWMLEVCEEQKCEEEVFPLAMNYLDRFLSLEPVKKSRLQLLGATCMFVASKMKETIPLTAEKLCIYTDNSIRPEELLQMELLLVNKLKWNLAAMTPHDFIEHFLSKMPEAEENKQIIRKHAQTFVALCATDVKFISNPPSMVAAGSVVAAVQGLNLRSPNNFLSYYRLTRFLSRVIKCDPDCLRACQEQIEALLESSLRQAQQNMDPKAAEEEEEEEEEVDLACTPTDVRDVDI
Chain of CSNK2A1 (human) (P68400 whole entry, looked up): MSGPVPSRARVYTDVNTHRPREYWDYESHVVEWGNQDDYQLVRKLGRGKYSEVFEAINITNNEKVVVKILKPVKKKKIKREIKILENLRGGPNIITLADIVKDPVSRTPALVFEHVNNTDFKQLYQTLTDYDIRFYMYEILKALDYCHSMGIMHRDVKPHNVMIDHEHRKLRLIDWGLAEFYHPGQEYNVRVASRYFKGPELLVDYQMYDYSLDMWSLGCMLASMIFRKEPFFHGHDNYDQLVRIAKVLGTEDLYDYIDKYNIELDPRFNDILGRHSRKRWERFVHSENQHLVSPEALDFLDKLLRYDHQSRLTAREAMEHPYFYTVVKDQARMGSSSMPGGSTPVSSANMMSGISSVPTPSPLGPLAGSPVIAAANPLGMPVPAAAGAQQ

## Cn1cnc2cc3c(Nc4cccc(Br)c4)ncnc3cc21
YES1 (human)
  residual activity: 45.7%
NEK4 (human)
  residual activity: 96.8%
RPS6KA1 KD1 KD2 (human)
  residual activity: 103%
BRSK2 (human)
  residual activity: 88.6%
STK17A (human)
  residual activity: 82.5%
CSNK2A1 (human)
  residual activity: 99%
AURKA (human)
  residual activity: 87.8%
MAPK14 (human)
  residual activity: 93.6%
RPS6KA6 KD1 KD2 (human)
  residual activity: 92.5%
MKNK2 (human)
  residual activity: 32.2%
TAOK1 (human)
  residual activity: 92.4%
DDR2 (human)
  residual activity: 102%
MAPKAPK2 (human)
  residual activity: 104%
RET (human)
  residual activity: 54.4%
LTK (human)
  residual activity: 77.9%
PRKCH (human)
  residual activity: 81.2%
RPS6KA2 KD1 KD2 (human)
  residual activity: 79.4%
FGFR1 (human)
  residual activity: 89.6%
DCLK2 (human)
  residual activity: 92.9%
TYRO3 (human)
  residual activity: 94.5%
PHKG1 (human)
  residual activity: 85%
EPHB3 (human)
  residual activity: 93.8%
ABL1 (human)
  residual activity: 32.6%
CLK3 (human)
  residual activity: 100%
STK24 (human)
  residual activity: 83.4%
WEE1 (human)
  residual activity: 106%
CDK3 CCNE1 (human)
  residual activity: 92.5%
GRK4 (human)
  residual activity: 99.5%
MAPKAPK5 (human)
  residual activity: 130%
TAOK2 (human)
  residual activity: 103%
MLTK (human)
  residual activity: 93.3%
PRKCD (human)
  residual activity: 91.8%
CDK4 CCND1 (human)
  residual activity: 84%
RPS6KA4 KD2 (human)
  residual activity: 96.3%
MAPK1 (human)
  residual activity: 94.2%
NTRK3 (human)
  residual activity: 81.4%
ULK2 (human)
  residual activity: 74.8%
TXK (human)
  residual activity: 86.7%
BLK (human)
  residual activity: 81%
CAMK2B (human)
  residual activity: 102%
RPS6KB2 (human)
  residual activity: 96.8%
IKBKB (human)
  residual activity: 104%

## Oc1ccc(Nc2nc(-c3ccc(Cl)cc3)cs2)cc1
YES1 (human)
  residual activity: 99.2%
NEK4 (human)
  residual activity: 104%
RPS6KA1 KD1 KD2 (human)
  residual activity: 97.7%
BRSK2 (human)
  residual activity: 101%
STK17A (human)
  residual activity: 98.7%
CSNK2A1 (human)
  residual activity: 101%
AURKA (human)
  residual activity: 89.4%
MAPK14 (human)
  residual activity: 98.6%
RPS6KA6 KD1 KD2 (human)
  residual activity: 117%
MKNK2 (human)
  residual activity: 84.5%
TAOK1 (human)
  residual activity: 97.1%
DDR2 (human)
  residual activity: 94.1%
MAPKAPK2 (human)
  residual activity: 100%
RET (human)
  residual activity: 99%
LTK (human)
  residual activity: 104%
PRKCH (human)
  residual activity: 96.3%
RPS6KA2 KD1 KD2 (human)
  residual activity: 101%
FGFR1 (human)
  residual activity: 82.5%
DCLK2 (human)
  residual activity: 98.5%
TYRO3 (human)
  residual activity: 102%
PHKG1 (human)
  residual activity: 96.5%
EPHB3 (human)
  residual activity: 103%
ABL1 (human)
  residual activity: 99.7%
CLK3 (human)
  residual activity: 92.6%
STK24 (human)
  residual activity: 94.1%
WEE1 (human)
  residual activity: 93.2%
CDK3 CCNE1 (human)
  residual activity: 99%
GRK4 (human)
  residual activity: 90.5%
MAPKAPK5 (human)
  residual activity: 96.8%
TAOK2 (human)
  residual activity: 101%
MLTK (human)
  residual activity: 92.7%
PRKCD (human)
  residual activity: 86.9%
CDK4 CCND1 (human)
  residual activity: 108%
RPS6KA4 KD2 (human)
  residual activity: 91.5%
MAPK1 (human)
  residual activity: 106%
NTRK3 (human)
  residual activity: 102%
ULK2 (human)
  residual activity: 101%
TXK (human)
  residual activity: 100%
BLK (human)
  residual activity: 100%
CAMK2B (human)
  residual activity: 85.8%
RPS6KB2 (human)
  residual activity: 99.8%
IKBKB (human)
  residual activity: 104%

## O=C1NC(=O)C(c2cn(CCCO)c3ncccc23)=C1c1cnccn1
YES1 (human)
  residual activity: 80.1%
NEK4 (human)
  residual activity: 85.1%
RPS6KA1 KD1 KD2 (human)
  residual activity: 94.8%
BRSK2 (human)
  residual activity: 90.4%
STK17A (human)
  residual activity: 93.6%
CSNK2A1 (human)
  residual activity: 78.9%
AURKA (human)
  residual activity: 107%
MAPK14 (human)
  residual activity: 107%
RPS6KA6 KD1 KD2 (human)
  residual activity: 73%
MKNK2 (human)
  residual activity: 69.1%
TAOK1 (human)
  residual activity: 132%
DDR2 (human)
  residual activity: 94.6%
MAPKAPK2 (human)
  residual activity: 91%
RET (human)
  residual activity: 54.5%
LTK (human)
  residual activity: 90.9%
PRKCH (human)
  residual activity: 81.6%
RPS6KA2 KD1 KD2 (human)
  residual activity: 73.2%
FGFR1 (human)
  residual activity: 81.2%
DCLK2 (human)
  residual activity: 90.1%
TYRO3 (human)
  residual activity: 93.7%
PHKG1 (human)
  residual activity: 87.2%
EPHB3 (human)
  residual activity: 86.6%
ABL1 (human)
  residual activity: 98.9%
CLK3 (human)
  residual activity: 67.8%
STK24 (human)
  residual activity: 72.1%
WEE1 (human)
  residual activity: 96.2%
CDK3 CCNE1 (human)
  residual activity: 89.4%
GRK4 (human)
  residual activity: 90.1%
MAPKAPK5 (human)
  residual activity: 98.6%
TAOK2 (human)
  residual activity: 88.1%
MLTK (human)
  residual activity: 96.4%
PRKCD (human)
  residual activity: 97%
CDK4 CCND1 (human)
  residual activity: 89.5%
RPS6KA4 KD2 (human)
  residual activity: 101%
MAPK1 (human)
  residual activity: 81.9%
NTRK3 (human)
  residual activity: 79.7%
ULK2 (human)
  residual activity: 96.7%
TXK (human)
  residual activity: 75.3%
BLK (human)
  residual activity: 87.1%
CAMK2B (human)
  residual activity: 97.6%
RPS6KB2 (human)
  residual activity: 94.7%
IKBKB (human)
  residual activity: 87.3%
